According to PubChem BioAssay (NCI):
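The compound was tested at five concentrations on cells cultured in 96-well plates, with a 48-hour exposure period. The concentration for full growth arrest is given as TGI.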

Legend:
Test in all cases: NCI tumour cell line growth inhibition, 48 h
786-0 renal = system: 786-0 renal
A498 renal = system: A498 renal
A549 NSCLC = system: A549 NSCLC
ACHN renal = system: ACHN renal
CAKI-1 renal = system: CAKI-1 renal
COLO 205 colon = system: COLO 205 colon
DU-145 prostate = system: DU-145 prostate
EKVX NSCLC = system: EKVX NSCLC
HCC-2998 colon = system: HCC-2998 colon
HCT-116 colon = system: HCT-116 colon
HCT-15 colon = system: HCT-15 colon
HOP-62 NSCLC = system: HOP-62 NSCLC
HOP-92 NSCLC = system: HOP-92 NSCLC
HS 578T breast = system: HS 578T breast
HT29 colon = system: HT29 colon
IGROV1 ovarian = system: IGROV1 ovarian
K-562 leukemia = system: K-562 leukemia
KM12 colon = system: KM12 colon
LOX IMVI melanoma = system: LOX IMVI melanoma
M14 melanoma = system: M14 melanoma
MALME-3M melanoma = system: MALME-3M melanoma
MCF7 breast = system: MCF7 breast
MDA-MB-435 = system: MDA-MB-435
MDA-N = system: MDA-N
NCI-H23 lung = system: NCI-H23 lung
NCI-H460 lung = system: NCI-H460 lung
NCI-H522 lung = system: NCI-H522 lung
NCI/ADR-RES ovarian = system: NCI/ADR-RES ovarian
OVCAR-3 ovarian = system: OVCAR-3 ovarian
OVCAR-4 ovarian = system: OVCAR-4 ovarian
OVCAR-5 ovarian = system: OVCAR-5 ovarian
OVCAR-8 ovarian = system: OVCAR-8 ovarian
PC-3 prostate = system: PC-3 prostate
RXF 393 renal = system: RXF 393 renal
SF-268 CNS = system: SF-268 CNS
SF-295 CNS = system: SF-295 CNS
SF-539 CNS = system: SF-539 CNS
SK-MEL-2 melanoma = system: SK-MEL-2 melanoma
SK-MEL-28 melanoma = system: SK-MEL-28 melanoma
SK-MEL-5 melanoma = system: SK-MEL-5 melanoma
SK-OV-3 ovarian = system: SK-OV-3 ovarian
SN12C renal = system: SN12C renal
SNB-19 CNS = system: SNB-19 CNS
SNB-75 CNS = system: SNB-75 CNS
SR leukemia = system: SR leukemia
SW-620 colon = system: SW-620 colon
T-47D breast = system: T-47D breast
TK-10 renal = system: TK-10 renal
U251 CNS = system: U251 CNS
UACC-257 melanoma = system: UACC-257 melanoma
UACC-62 melanoma = system: UACC-62 melanoma
UO-31 renal = system: UO-31 renal

N#CCCC1(CCC#N)CCCCCCC(CCC#N)(CCC#N)C(=O)C1=O
TGI (786-0 renal): > 100 µM
TGI (A498 renal): > 100 µM
TGI (A549 NSCLC): > 100 µM
TGI (ACHN renal): > 100 µM
TGI (CAKI-1 renal): > 100 µM
TGI (COLO 205 colon): > 100 µM
TGI (DU-145 prostate): > 100 µM
TGI (EKVX NSCLC): > 100 µM
TGI (HCC-2998 colon): > 100 µM
TGI (HCT-116 colon): > 100 µM
TGI (HCT-15 colon): > 100 µM
TGI (HOP-62 NSCLC): > 100 µM
TGI (HOP-92 NSCLC): > 100 µM
TGI (HS 578T breast): > 100 µM
TGI (HT29 colon): > 100 µM
TGI (IGROV1 ovarian): > 100 µM
TGI (K-562 leukemia): > 100 µM
TGI (KM12 colon): > 100 µM
TGI (LOX IMVI melanoma): > 100 µM
TGI (M14 melanoma): > 100 µM
TGI (MALME-3M melanoma): > 100 µM
TGI (MCF7 breast): > 100 µM
TGI (MDA-MB-435): > 100 µM
TGI (MDA-N): > 100 µM
TGI (NCI-H23 lung): > 100 µM
TGI (NCI-H460 lung): > 100 µM
TGI (NCI-H522 lung): > 100 µM
TGI (NCI/ADR-RES ovarian): > 100 µM
TGI (OVCAR-3 ovarian): > 100 µM
TGI (OVCAR-4 ovarian): > 100 µM
TGI (OVCAR-5 ovarian): > 100 µM
TGI (OVCAR-8 ovarian): > 100 µM
TGI (PC-3 prostate): > 100 µM
TGI (RXF 393 renal): > 100 µM
TGI (SF-268 CNS): > 100 µM
TGI (SF-295 CNS): > 100 µM
TGI (SF-539 CNS): > 100 µM
TGI (SK-MEL-2 melanoma): > 100 µM
TGI (SK-MEL-28 melanoma): > 100 µM
TGI (SK-MEL-5 melanoma): > 100 µM
TGI (SK-OV-3 ovarian): > 100 µM
TGI (SN12C renal): > 100 µM
TGI (SNB-19 CNS): > 100 µM
TGI (SNB-75 CNS): > 100 µM
TGI (SR leukemia): > 100 µM
TGI (SW-620 colon): > 100 µM
TGI (T-47D breast): > 100 µM
TGI (TK-10 renal): > 100 µM
TGI (U251 CNS): > 100 µM
TGI (UACC-257 melanoma): > 100 µM
TGI (UACC-62 melanoma): > 100 µM
TGI (UO-31 renal): 20.8 µM
